Assay results as given in patent publication US8530468B2 (Cancer Research Technology Limited, priority 2008, dated 2013).

What was measured:
HT29 cells = assay: Mitosis inhibition assay (MIA), checkpoint abrogation after etoposide; type: cell-based; conditions: Homo sapiens, HT-29, etoposide 50 μM 1 hour, then compound with nocodazole 100 ng/mL, 21 hours, read-out: MIA IC50 (concentration required to allow 50% of cells to enter mitosis)
CHK1 = target: T1, CHK1 (Homo sapiens, UniProt O14757); assay: CHK1 kinase function inhibition (DELFIA assay, phosphorylation of CDC25C peptide); type: biochemical; conditions: CHK1 1 nM, ATP 30 μM, 30 minutes at room temperature
T1 sequence (O14757 1-476): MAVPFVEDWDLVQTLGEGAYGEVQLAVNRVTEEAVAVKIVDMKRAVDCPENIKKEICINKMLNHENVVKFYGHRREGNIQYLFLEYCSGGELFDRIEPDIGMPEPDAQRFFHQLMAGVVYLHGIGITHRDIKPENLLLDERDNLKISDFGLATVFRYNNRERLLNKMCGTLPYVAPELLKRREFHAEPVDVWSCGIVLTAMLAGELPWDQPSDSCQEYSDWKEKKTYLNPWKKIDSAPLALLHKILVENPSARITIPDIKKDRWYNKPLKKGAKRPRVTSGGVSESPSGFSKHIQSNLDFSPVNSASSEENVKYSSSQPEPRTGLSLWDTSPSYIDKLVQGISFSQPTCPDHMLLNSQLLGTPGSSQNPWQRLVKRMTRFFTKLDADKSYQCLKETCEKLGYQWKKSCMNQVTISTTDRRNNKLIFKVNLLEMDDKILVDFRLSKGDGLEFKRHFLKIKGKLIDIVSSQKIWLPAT

[1] = test system: HT29 colon carcinoma cells; assay: Cytotoxicity assay (SRB); type: cell-based; conditions: Homo sapiens, HT-29, 96 hours, read-out: SRB IC50 (concentration required to inhibit growth by 50%)

SMILES	IC50 (HT29 cells) [µM]	IC50 (CHK1) [µM]	IC50 [1] [µM]
N#Cc1cnc(Nc2cc3cccc(NCCN4CCOCC4)c3cn2)cn1 [AA-020, 5-(8-(2-morpholinoethylamino)isoquinolin-3-ylamino)pyrazine-2-carbonitrile]	≤ 10	≤ 1	≤ 10
N#Cc1cnc(Nc2cc3cccc(NCCCN4CCOCC4)c3cn2)cn1 [AA-027]	≤ 10	≤ 1	≤ 10
N#Cc1cnc(Nc2cc3cccc(NCCO)c3cn2)cn1 [AA-031, 5-(8-(2-Hydroxyethylamino)isoquinolin-3-ylamino)pyrazine-2-carbonitrile]	≤ 10	≤ 1	≤ 10
N#Cc1cnc(Nc2cc3cccc(NCCCO)c3cn2)cn1 [AA-033]	≤ 10	≤ 1	≤ 10
COCCNc1cccc2cc(Nc3cnc(C#N)c(O[C@@H]4CCNC4)n3)ncc12 [AA-037]	≤ 10	≤ 1	≤ 10
N#Cc1ncc(Nc2cc3cccc(NCCCO)c3cn2)nc1O[C@@H]1CCNC1 [AA-040]	≤ 10	≤ 1	≤ 10
N#Cc1ncc(Nc2cc3cccc(NCCO)c3cn2)nc1OC[C@H]1CNCCO1 [AA-043]	≤ 10	≤ 1	≤ 10
N#Cc1ncc(Nc2cc3cccc(NCCO)c3cn2)nc1O[C@@H]1CCNC1 [AA-044]	≤ 10	≤ 1	≤ 10
N#Cc1ncc(Nc2cc3ccccc3cn2)nc1OC[C@H]1CNCCO1 [AA-049]	≤ 10	≤ 1	≤ 10
N#Cc1ncc(Nc2cc3ccccc3cn2)nc1O[C@@H]1CCNC1 [AA-050]	≤ 10	≤ 1	≤ 10
N#Cc1ncc(Nc2cc3cccc(C(F)(F)F)c3cn2)nc1O[C@@H]1CCNC1 [AA-055]	≤ 10	≤ 1	≤ 10
CNc1cccc2cc(Nc3cnc(C#N)cn3)ncc12 [AA-059]	≤ 10	≤ 1	≤ 10
N#Cc1cnc(Nc2cc3cccc(N)c3cn2)cn1 [AA-061, 5-(8-Aminoisoquinolin-3-ylamino)pyrazine-2-carbonitrile]	≤ 10	≤ 1	≤ 10

Continued, in another order:

IC50 (HT29 cells) [µM]	IC50 (CHK1) [µM]	SMILES	IC50 [1] [µM]
≤ 10	≤ 1	N#Cc1ncc(Nc2cc3cccc(Cl)c3cn2)nc1O[C@@H]1CCNC1 [AA-008, (R)-5-(8-Chloroisoquinolin-3-ylamino)-3-(pyrrolidin-3-yloxy)pyrazine-2-carbonitrile]	≤ 10
≤ 10	≤ 1	CN1CCC(COc2nc(Nc3cc4cccc(Cl)c4cn3)cnc2C#N)CC1 [AA-014]	≤ 10
≤ 10	≤ 1	Cc1cccc2cc(Nc3cnc(C#N)c(OC(C)CN(C)C)n3)ncc12 (stereo not drawn) [AA-025]	≤ 10
≤ 10	≤ 1	CC(CN(C)C)Oc1nc(Nc2cc3cccc(Br)c3cn2)cnc1C#N (stereo not drawn) [AA-026]	≤ 10
≤ 10	≤ 1	CC(CN(C)C)Oc1nc(Nc2cc3cccc(NCCO)c3cn2)cnc1C#N (stereo not drawn) [AA-032]	≤ 10
≤ 10	≤ 1	CC(CN(C)C)Oc1nc(Nc2cc3cccc(NCCCO)c3cn2)cnc1C#N (stereo not drawn) [AA-034]	≤ 10
≤ 10	≤ 1	COCCCNc1cccc2cc(Nc3cnc(C#N)c(O[C@H](C)CN(C)C)n3)ncc12 [AA-038]	≤ 10
≤ 10	≤ 1	C[C@H](CN(C)C)Oc1nc(Nc2cc3cccc(NCCCO)c3cn2)cnc1C#N [AA-041]	≤ 10
≤ 10	≤ 1	N#Cc1ncc(Nc2cc3cccc(Br)c3cn2)nc1OC[C@H]1CNCCO1 [AA-051]	≤ 10
≤ 10	≤ 1	N#Cc1ncc(Nc2cc3cccc(Br)c3cn2)nc1O[C@@H]1CCNC1 [AA-052]	≤ 10
≤ 10	≤ 1	C[C@H](CN(C)C)Oc1nc(Nc2cc3cccc(F)c3cn2)cnc1C#N [AA-054]	≤ 10
≤ 10	≤ 1	Cc1cccc2cc(Nc3cnc(C#N)c(O[C@H](C)CN(C)C)n3)ncc12 [AA-057]	≤ 10
≤ 10	≤ 1	Cc1cccc2cc(Nc3cnc(C#N)c(O[C@@H]4CCNC4)n3)ncc12 [AA-058]	≤ 10
≤ 10	≤ 1	CNc1cccc2cc(Nc3cnc(C#N)c(OC(C)CN(C)C)n3)ncc12 (stereo not drawn) [AA-060]	≤ 10
≤ 10	≤ 1	COc1cccc2cc(Nc3cnc(C#N)c(O[C@H](C)CN(C)C)n3)ncc12 [AA-067, (R)-3-(1-(Dimethylamino)propan-2-yloxy)-5-(8-methoxyisoquinolin-3-ylamino)pyrazine-2-carbonitrile]	≤ 10
